Laboratory results as given in patent US9233127B2, “Compositions and methods for CXCR4 signaling and umbilical cord blood stem cell engraftment” (University of Virginia Patent Foundation, priority 2012, dated 2016).
Entries after “also recorded” stand apart in the source; their conditions may differ.

Experiments:
[1] = system: murine BMNCs and CFU-GM progenitor cells; experiment: Migration of murine BMNCs and CFU-GM progenitors to SDF-1 gradient after cationic peptide priming; type: cell-based
Description: FIG. 8A-B—A) BM mononuclear cell and B) CFU-GM migration in response to an SDF-1 gradient after priming with LL-37 or hBD-2. Values are fold increases of migrated cells compared to media alone.
FIG. 17A-B—Cationic peptides released from granulocytes enhance responsiveness of HSPCs to SDF-1 gradient. […] Values are the fold increases of migrated cells compared to media alone. M, media alone; SDF-1 (L), 50 ng/ml; SDF-1 (H), 300 ng/ml; C3a, 1 μg/ml. * P<0.05 as compared with SDF-1 (50 ng/ml) alone. The data shown represent the combine results from four independent experiments carried out in triplicate per group (n=12).
We also evaluated the effect of complement fragment 5a (C5a). […] After leaving the BM, granulocytes undergo degranulation in response to plasma C5a and secrete cationic peptides, such as cathelicidin (LL-37) and β-defensin-2 (hBD-2). […] It was hypothesized that this response may be affected by the distribution of membrane lipids by cationic peptides. […] Direct confocal analysis of CXCR4 and lipid raft colocalization in the presence or absence of cationic peptides confirmed these findings.

[2] = system: NFAT1; experiment: NFAT1 protein and miR-184 in UCB CD4 T-cells stimulated with αCD3/CD28 plus exogenous IFN-γ; type: cell-based, human; conditions: for NFAT1 protein expression: CD3/28 stimulation 24 h, absence of monocytes, 1000 U/ml
Description: FIG. 22A-B—Rescue of NFAT1 protein in UCB CD4 T-cells during primary stimulation in the presence of exogenous IFN-γ. UCB CD4 T-cells were stimulated with αCD3/CD28 for 24 h with 1000 U/ml of exogenous rh-IFN-γ. Cell lysates were harvested and Western Blot was probed for NFAT1 and β-actin.

[3] = system: UCB T-cells; experiment: Cytoplasmic IFN-γ and NFAT1 expression in UCB T-cells during mitogen stimulation; type: cell-based, human; conditions: for percentages of IFN-γ-expressing UCB T-cells: exogenous cytokine added during mitogen stimulation, IFN-γ 100 or 1,000 U/ml, 24 h
Description: To further test expression and regulation, exogenous IFN-γ was added (100 or 1,000 U/ml) during mitogen stimulation and cytoplasmic IFN-γ expression in UCB T-cells was measured.

[4] = system: CXCR4; experiment: Western blot of CXCR4 in lipid raft membrane fractions of THP-1 cells; type: cell-based, human
Description: FIG. 15A-B—Western blot analysis of the colocalization of CXCR4 in fractions of cell membranes enriched in lipid rafts (fractions 3-5) and depleted of lipid rafts (fractions 9-11). Panel A: Hematopoietic THP-1 cells were stimulated by C3a (1 μg/mL) or desArgC3a (1 μg/mL) or not stimulated (control). CXCR4 was detected in these membrane fractions by Western blot along with ganglioside GM1, a marker of lipid rafts. Experiments were performed three times with similar results. Panel B: In control experiments, cells were pretreated for 1 hr with 10 mM MβCD. A representative study is shown.
Furthermore, direct evidence of the effect of priming agents on CXCR4 incorporation into membrane lipid rafts was obtained from Western blot analysis of CXCR4 expression in various fractions of cell membranes isolated according to their lipid raft content (Example 2, FIG. 15A-B). […] The role of C3a in incorporation of CXCR4 into membrane lipid rafts in UCB cells and involvement of other signaling molecules to this phenomenon will be evaluated in Aim 1.

[5] = system: CD34+ cells; experiment: Transwell chemotaxis of CD34+ cells to an SDF-1 gradient (priming); type: cell-based, human
Description: (§1) FIG. 11A-B—Effect of SLP and its components on chemotaxis of CD34^+ cells. Panel A: Chemotaxis of BM CD34^+ cells towards medium alone (control), SDF-1 low (10 ng/mL) alone, SLP (combined SLP from three patients), SDF-1 low+SLP, and SDF-1 high (300 ng/mL). Data are pooled from quadruplicate samples from three independent experiments. *p<0.00001. Panel B: Chemotaxis of UCB CD34^+ cells to medium alone (control), SDF-1 low (10 ng/mL) alone and SDF-1 low (10 ng/mL)+uPAR (1 μg/mL) or +ICAM (1 μg/mL) or +VCAM (1 μg/mL) or +FN (2 μg/mL), or +FG (4 μg/mL) or +C3a (1 μg/mL). Data are pooled from quadruplicate samples from three independent experiments. * p<0.00001.
Chemotaxis of CD34^+ cells to medium alone (control), C3a (1 μg/ml), C3adesArg (1 μg/ml), SDF-1 low (10 ng/mL) alone, and SDF-1 low (10 ng/mL)+C3a low (0.1 μg/ml) or SDF-1 low (10 ng/mL)+C3a (1 μg/ml) or SDF-1 low (10 ng/mL)+C3adesArg (1 μg/ml). Data are pooled from quadruplicate samples from three independent experiments.* p<0.00001.
FIG. 13A-B—Chemotaxis of cells to an SDF-1 gradient is lipid raft-dependent. Panel A: Chemotaxis of CD34^+ cells to medium alone (control), SDF-1 (300 ng/mL) and SDF-1 (300 ng/mL) after preincubation for 1 hr with Amphotericin (10 μg/mL) or Nystatin (50 μg/mL). Cells were collected after chemotaxis from the lower chambers and plated in a clonogenic assay. The number of CFU-GM and BFU-E colonies formed by harvested cells is shown as a percentage of control values. Data are pooled from quadruplicate samples from three independent experiments. *p<0.0001. Panel B: Chemotaxis of CD34^+ cells towards medium alone (control), SDF-1 low (10 ng/mL) alone, or SDF-1 low with cells exposed to C3a (1 μg/mL). Cells pretreated before chemotaxis for 1 hr with MβCD (2.5 mM) are shown as gray bars. Data are pooled from quadruplicate samples from three independent experiments. * p<0.00001.
HSPCs from the mPB engraft faster compared to HSPCs aspirated from BM. To test the hypothesis that mPB-derived HSPCs are primed in their responses to SDF-1 by molecules present in SLP, we pooled together SLP from three patients and exposed BM or UCB CD34^+ cells to the SLP during chemotaxis to a low (10 ng/mL) dose of SDF-1.
To address this issue further, the formation of rafts in the cells was perturbed by MβCD, which depletes cholesterol from the cell membrane. The CD34^+ cells were pre-incubated with MβCD for 1 hr. Chemotaxis to a low dose of SDF-1 in the presence of C3a (in the upper chambers) was evaluated.

[6] = system: UCB CD34+ cells; experiment: Transwell chemotaxis of UCB CD34+ cells to SDF-1 (priming); type: cell-based, human; conditions: for chemotactic response of UCB CD34+ cells to SDF-1: added to lower chambers with SDF-1 10 ng/mL, uPAR, ICAM, VCAM, C3a 1 μg/mL, FN 2 μg/mL, FG 4 μg/mL; for induction of chemotaxis of HSPCs when used alone: without SDF-1
Description: as §1
An increased migration of UCB-derived CD34^+ cells, as compared to BM and mPB CD34^+ cells was reported in transwell migration assays was previously reported. However, we noticed large inter-individual differences in the in vitro migratory ability of UCB CD34^+ cells, ranging from 1.1% to 14.3% for spontaneous migration and 3.1% to 62.3% for SDF-1-induced (300 ng/mL) migration. The lower migratory capacity in vitro of UCB-derived CD34^+ cells was not due to lower expression of CXCR4, but likely reflects the decreased migratory behavior of these cells. […] Based on this, we postulate that UCB HSPC responsiveness to an SDF-1 gradient varies with each collected UCB unit and that, in cases when responsiveness is low, UCB HSPCs should be identified and primed before infusion.
Moreover, as SLP contains several components that potentially could prime the responses of CD34^+ cells, (Example 2, FIG. 11, panel B) the most important being PMV and activated complement proteins such as anaphylatoxin C3a, soluble VCAM-1, soluble ICAM-1, uPAR, FG, and FN, we evaluated whether these factors could induce the chemotaxis of HSPCs when used alone. […] We also examined whether FG, FN, soluble VCAM-1, soluble ICAM-1, uPAR, and C3a prime HSPCs in their responses to SDF-1. […] To determine whether this also affects UCB CD34^+ clonogenic progenitors, UCB CD34^+ cells were collected from the lower chambers after the chemotaxis assay and plated in methylcellulose cultures. […] Moreover, a similar effect for the established hematopoietic cell lines Molt 4, Nalm-6, and THP-1 was also found (data not shown).

## MIP-3alpha: agonist of a membrane receptor that may bind the cationic peptides [reference compound]
[1]
  responsiveness of hematopoietic progenitors to plasma SDF-1 (priming effect): did not show similar priming effects

## IFN-γ: exogenous rh-IFN-γ
[2]; CD3/28 primary stimulation
  miR-184 expression (qRT-PCR): marked decrease; also recorded: observed to decrease
[2]
  NFAT1 protein expression: increases in NFAT1 protein expression
[2]; listed as rh-IFN-γ
  NFAT1 protein expression: noted to increase
[3]
  percentages of IFN-γ-expressing UCB T-cells: nearly increased to that measured in adult T-cells
[3]; mitogen (ConA) stimulation plus exogenous IFN-γ
  NFAT1 expression and concomitant IFN-γ expression: strong increases
[3]; treatment with IFN-γ alone
  IFN-γ expression: did not stimulate IFN-γ expression
  NFAT1 expression: only slightly increased

## TNF-α
[3]
  percentages of IFN-γ-expressing UCB T-cells: did not result in up-regulation

## desArgC3a: fragment of C3a where the end arginine residue is cleaved; 76 residues; SEQ ID NO:2
[4]
  incorporation of Rac-1 into membrane lipid rafts: increased the incorporation of Rac-1
[4]; 1 μg/mL
  incorporation of CXCR4 into GM1-enriched membrane lipid rafts (fractions 3-5): stimulates incorporation of CXCR4
[5]; SDF-1 low 10 ng/mL, C3a or C3adesArg 1 μg/ml
  chemotaxis of human CD34+ cells to low-threshold doses of SDF-1: potentiate (prime) chemotaxis
[5]; no SDF-1, 1 μg/ml
  chemoattraction of CD34+ cells by the C3 cleavage fragment on its own: neither C3 cleavage fragments chemoattract
[6]; UCB-derived CD34+ cells exposed/primed
  responsiveness of UCB cells to SDF-1 gradient: significantly increase the responsiveness

B1: soluble VCAM-1: soluble VCAM-1, component of SLP (protein, UniProt P19320 25-698, looked up)
extracellular domain: FKIETTPESRYLAQIGDSVSLTCSTTGCESPFFSWRTQIDSPLNGKVTNEGTTSTLTMNPVSFGNEHSYLCTATCESRKLEKGIQVEIYSFPKDPEIHLSGPLEAGKPITVKCSVADVYPFDRLEIDLLKGDHLMKSQEFLEDADRKSLETKSLEVTFTPVIEDIGKVLVCRAKLHIDEMDSVPTVRQAVKELQVYISPKNTVISVNPSTKLQEGGSVTMTCSSEGLPAPEIFWSKKLDNGNLQHLSGNATLTLIAMRMEDSGIYVCEGVNLIGKNRKEVELIVQEKPFTVEISPGPRIAAQIGDSVMLTCSVMGCESPSFSWRTQIDSPLSGKVRSEGTNSTLTLSPVSFENEHSYLCTVTCGHKKLEKGIQVELYSFPRDPEIEMSGGLVNGSSVTVSCKVPSVYPLDRLEIELLKGETILENIEFLEDTDMKSLENKSLEMTFIPTIEDTGKALVCQAKLHIDDMEFEPKQRQSTQTLYVNVAPRDTTVLVSPSSILEEGSSVNMTCLSQGFPAPKILWSRQLPNGELQPLSENATLTLISTKMEDSGVYLCEGINQAGRSRKEVELIIQVTPKDIKLTAFPSESVKEGDTVIISCTCGNVPETWIILKKKAETGDTVLKSIDGAYTIRKAQLKDAGVYECESKNKVGSQLRSLTLDVQGRENNKDYFSPE
modifications: extracellular domain
notes: soluble VCAM-1, component of SLP
[6]
  chemotactic response of UCB CD34+ cells to SDF-1: increased the chemotactic response
  induction of chemotaxis of HSPCs when used alone: no evidence that they did

B2: soluble ICAM-1: soluble ICAM-1, component of SLP (protein, UniProt P05362 28-480, looked up)
extracellular domain: QTSVSPSKVILPRGGSVLVTCSTSCDQPKLLGIETPLPKKELLLPGNNRKVYELSNVQEDSQPMCYSNCPDGQSTAKTFLTVYWTPERVELAPLPSWQPVGKNLTLRCQVEGGAPRANLTVVLLRGEKELKREPAVGEPAEVTTTVLVRRDHHGANFSCRTELDLRPQGLELFENTSAPYQLQTFVLPATPPQLVSPRVLEVDTQGTVVCSLDGLFPVSEAQVHLALGDQRLNPTVTYGNDSFSAKASVSVTAEDEGTQRLTCAVILGNQSQETLQTVTIYSFPAPNVILTKPEVSEGTEVTVKCEAHPRAKVTLNGVPAQPLGPRAQLLLKATPEDNGRSFSCSATLEVAGQLIHKNQTRELRVLYGPRLDERDCPGNWTWPENSQQTPMCQAWGNPLPELKCLKDGTFPLPIGESVTVTRDLEGTYLCRARSTQGEVTRKVTVNVLSPRYE
modifications: extracellular domain
notes: soluble ICAM-1, component of SLP
[6]
  chemotactic response of UCB CD34+ cells to SDF-1: increased the chemotactic response
  induction of chemotaxis of HSPCs when used alone: no evidence that they did
